The results in this text go back to patent publication US20260272895A1, “METHODS AND KITS FOR DELIVERY OF COMPOUNDS INTO CELLS” (Yale University, priority 2023, published 2026).

“Also recorded” adds a separate entry of the source.

Data set [1] can be described thus: Assessment of in vivo compound toxicity (fur regrowth, body weight). Details: species or system mouse. The settings on record: intradermal injection (fur regrowth) and daily intraperitoneal injection for 5 days (body weight). As for the experimental part: To evaluate systemic toxicity, mouse weight was monitored daily, focusing on P20 mice in their active growth stage. For local toxicity assessment, the mouse fur was shaved to stimulate follicular stem cell division and subsequent hair regrowth. Compounds were injected intradermally on the right lower back quadrant and the left quadrant was used as a control. Hair regrowth was monitored for 12 days with serial photography followed by quantification using NIH Image J Plot Profile Plug-In, yielding pixel intensity profiles. Changes in pixel intensity where compared between injected (right quadrant) versus noninjected (left quadrant) by using the following formula:
(Noninjected intensity−Injected intensity)/Noninjected intensity×100%. (Eq. 1)

For data set [2], the system named is brain cell types. The data set is described as follows: In vivo two-photon imaging of mouse cortex after topical cortical administration of fluorophores. How it is done:
(§1) Briefly, animals are anaesthetized via intraperitoneal injections of ketamine/xylazine or via inhaled isoflurane. A region of the skull (3×3 mm) is gently removed with a high-speed drill and the underlying dura is removed. A small glass coverslip is placed over the skull to allow long term optical access for in vivo imaging. Labeling with fluorescent dyes is performed either via intravenous injections or topically application to the cortical surface for 20 min prior to glass cover placement. After recovery, in vivo images are acquired using a two-photon microscope (Bruker Technologies) equipped with a multimodal (fixed wavelength 1040 nm and tunable wavelength) InSight X3 two-photon laser (Spectra Physics) and 20× water immersion objective (Zeiss 1.0N.A.). The two-photon laser is appropriately tuned to excite particular fluorescent dyes and proteins as needed. In selected cases, following in vivo imaging, mice will be sacrificed and perfused for follow up immunohistochemistry and high-resolution confocal imaging (Leica SP8) to further confirm colocalization of dyes and cells expressing particular transporters.
(§2) One-month-old wild-type mice were anesthetized using a ketamine/xylazine solution at doses of 100 mg/kg and 10 mg/kg, respectively. The fur around the skull area was shaved, and buprenex (0.1 mg per kg) and carprofen (5 mg per kg) were administered subcutaneously. Mice were kept on a heating pad at 37° C., and anesthesia was periodically monitored. The skin was treated with povidone-iodine solution, followed by cleaning with ethanol, and eye ointment was applied. A small skin section was excised to expose the skull. Thinning of the skull was performed in a circular area, followed by delicately lifting of the remaining skull without harm to the underlying brain. Within the circular region, the dura was gently removed using fine forceps, and a 4 mm cover glass was softly pressed onto the brain surface and affixed to the skull. Fluorescent dyes were applied either through intravenous injections or topically to the cortical surface for 20 minutes before placing the glass cover. A customized head bar was attached either by adhesive (for acute imaging) or permanently implanted (using dental cement, for chronic imaging) onto the skull. Mice were imaged under a two-photon microscope (Prairie Technologies) with a mode-locked MaiTai tunable laser (Spectra Physics). Imaging was performed with a 20× water immersion objective (Zeiss, 1.0NA). Images were captured at depths up to 300 μm from the pial surface using excitation wavelengths ranging from 750 to 950 nm as previously described. Mice undergoing chronic imaging received a recovery period on a heating pad post-surgery, and buprenex (0.1 mg per kg) and carprofen (5 mg per kg) were administered for 3 days.
Batches of 10 compounds were applied through the craniotomy to the cortical surface before placing a cover glass window. No additional washings were performed, and the cover glass was placed, allowing up to 3 hours of imaging of the cortical surface with a two-photon microscope. Following imaging, the data were analyzed to identify potential patterns of cell-specific labeling. […] Positive batches underwent three additional rounds of imaging, with each batch being sequentially split, until a single compound displaying cell-type-specific labeling was identified. As these compounds were not initially purified, the labeling may have resulted from fluorescent byproducts of synthesis. Consequently, large-scale synthesis, purification and characterization (FIGS. 29A-29D) of the identified compounds were conducted. The purified compounds were subsequently retested using in vivo imaging to confirm cell type specificity.
It was reasoned that the best strategy to identify fluorophores with specific affinity to certain cell types and transport mechanisms would be by direct screening in the intact in vivo brain microenvironment. […]

Data set [3] has as its system brain cell types. Described as above. The settings on record: topical cortical administration 50 μM, Tie2-GFP endothelial reporter mice.
For the next data set, the system named is NIH3T3 cells. Nature of the data set: Assessment of pharmacological effects in vitro in NIH3T3 cells (tubulin staining, multinucleated cells). It counts as cell-based.
Data set [4] relates to brain endothelium / blood brain barrier. The data set is described as follows: In vivo two-photon imaging of mouse brain cortex after intravenous administration. How it is done:
as §1
as §2, with “days. […]” for “days.”

For the next data set, the system named is SLC2A3. The data set is described as follows: Compound uptake in HEK293 expressing solute carrier family 2 member 3. It counts as cell-based. How it is done:
HEK293 cells are cultured and seeded at ~60% confluency in 24-well plates and are transiently transfected with 250 ng of a candidate transporter and 1 μL transfection reagent (JetPRIME). After 2 days, cells are washed and novel fluorescent probes at different concentrations are added to the transport medium and incubated at 37° C., for at least 30 minutes. To terminate the transport, cells are washed with PBS and fixed with 4% paraformaldehyde. The colocalization of probe uptake and cells expressing the transporters is investigated by immunostaining the transporter which has a fused FLAG tag, using anti-FLAG 488. Before confocal imaging, nuclei are labeled with Hoechst 33342 and cells are mounted and imaged on a Leica SP8 confocal microscope.
For in vitro experiments, HEK293 cells were cultured and seeded in 24-well plates, reaching approximately 60% confluency. For transient transfection, 250 ng of a candidate transporter plasmid and 1 μL of transfection reagent (JetPRIME) were added to the cells. After a 2-day incubation period, the cells were washed, and novel fluorescent probes were introduced into the transport medium at various concentrations. The cells were then incubated at 37° C., for a minimum of 30 minutes to allow for uptake. To stop the transport process, the cells were washed with PBS and fixed using 4% paraformaldehyde. […]

Excerpt for NIH3T3 cells: Confocal microscopy of the different treatment groups allowed us to visualize Hoechst dye-labeled nuclei to quantify the proportion of cells with multinucleated phenotype which is known to occur with Colchicine treatments.

Take `COc1cc2c(c(OC)c1OC)-c1ccc(OC)c(=O)cc1C(NS(=O)(=O)c1ccc(-c3c4ccc(N(C)C)cc4[o+]c4cc(N(C)C)ccc34)c(S(=O)(=O)[O-])c1)CC2` (centres unmarked) [Compound 47, 2-(3,6-bis(dimethylamino)xanthylium-9-yl)-5-(N-(1,2,3,10-tetramethoxy-9-oxo-5,6,7,9-tetrahydrobenzo[a]heptalen-7-yl)sulfamoyl)benzenesulfonate]: the “local and systemic toxicity” value in data set [1] is “markedly reduced local and systemic toxicity”. Further, the “cellular labeling in cortex” value in the data set with brain cell types [2] (topical cortical administration, 50 μM, wild type mice) is “labeling of endothelial processes (arrow) and cell bodies (arrowhead)”. The “colocalization with GFP labeling” value in the data set with brain cell types [3] is “precise colocalization between Colchicine-eEDiTS and GFP labeling”. Further, the “preservation of pharmacological properties after conjugation” value in the data set on NIH3T3 cells (NIH3T3 cells) is on record as “retains its pharmacological properties”. The “cell morphology / multinucleated cells” value in the data set on NIH3T3 cells (NIH3T3 cells (FIG. 17A)) was “changes in cell morphology and presence of multinucleated cells”. The “pattern of α-tubulin immunofluorescence” value with NIH3T3 cells (NIH3T3 cells, 12 hours, varying concentrations (FIG. 17A)) is listed as “diffuse labeling pattern”.

As to `O=S(=O)([O-])c1cc(S(=O)(=O)O)ccc1C1=c2cc3c4c(c2Oc2cc(Br)ccc21)CCC[N+]=4CCC3` [Compound 1, 2-(12-bromo-1,2,3,5,6,7-hexahydrochromeno[2,3-f]pyrido[3,2,1-ij]quinolin-4-ium-9-yl)-5-sulfobenzenesulfonate], in data set [4] (2 hours post intravenous injection), the “entry into non-endothelial cells” value is recorded as “does not enter non-endothelial cells; also recorded: does not enter other cells except for endothelial cells”. Also, the “brain endothelial labeling after intravenous administration” value in data set [4] (IV 50 microliters at 20 mg/ml, 10 min to 130 min post injection) is on record as “marked uptake of the compound into the capillary endothelial wall; also recorded: robust brain endothelial labeling”. Besides, the “interstitial space fluorescence / blood brain barrier crossing” value in data set [4] (IV, 10 min vs 130 min or 2 hours post injection) was “located in the brain interstitial space; also recorded: marked increase in the interstitial space fluorescence”. Further, the “punctate labeling in the endothelium” value in data set [4] (lower concentration IV in 120 μL of PBS, around 2 hours post injection) was “bright punctate labeling becomes apparent in the endothelium”. In addition, the “uptake on expression of SLC2A3” value in the data set on SLC2A3 is “does not induce uptake”. Further, the Target result in the data set on brain cell types [2] (cell type taking up the compound in vivo (Table 1)) is “Endothelial”. Moreover, in the data set with brain cell types [2] (topical application to cortex), the “labeling of other (non-endothelial) cell types” value is “only endothelial cells are labeled”. Moreover, the “endothelial cell labeling/uptake after topical application to the brain” value in the data set with brain cell types [2] (topical cortical application) is reported as “Highly specific labeling of endothelial cells within capillaries”.
